According to patent US20210113529A1, “MEDICINE FOR PREVENTING OR TREATING OPHTHALMIC DISEASE ASSOCIATED WITH ENHANCED INTRAOCULAR NEOVASCULARIZATION AND/OR INTRAOCULAR VASCULAR PERMEABILITY” (KYOTO UNIVERSITY, priority 2018, published 2021):
Values belong to the compound of their own block, whether it stands above or below them.

How the values were obtained:
[1] = tested on: human retinal vascular endothelial cells (HRMECs); experiment: Permeability of human retinal vascular endothelial cells (Transwell, FITC-dextran); assay type: cell-based; settings: HRMECs in Transwell; 0.3 nM, 3 nM or 30 nM; 60 minutes pre-culture, 60 minutes after FITC-dextran (40 kDa)
Protocol: The upper chamber of Transwell (diameter: 6.5 mm, pore size: 0.4 μm: Corning Incorporated) coated with collagen and fibronectin was seeded with human retinal vascular endothelial cells (HRMECs) (Cell Systems) at a cell density of 5×10^4 cells/well, and the cells were cultured in Endothelial Cell Growth Medium MV 2 (PromoCell GmbH) under a 5% CO2 atmosphere at 37° C. for 6 days. Then, to the upper chamber and lower chamber of the Transwell, Compound 1 at a final concentration of 0 nM, 0.3 nM, 3 nM, or 30 nM, which had been prepared using 0.001% dimethyl sulfoxide-containing Endothelial Cell Growth Medium MV 2 as a vehicle, was added, and culture was continued. A well to which only the vehicle was added was used as a control. After 60 minutes of culture, 1 mg/mL of fluorescein isothiocyanate (FITC)-dextran (40 kDa: Sigma-Aldrich) was added to the upper chamber of the Transwell, and 60 minutes later, the fluorescence intensity of the medium in the lower chamber was measured to measure the amount of FITC-dextran permeating the lower chamber.

S1P4 receptor = target: T1, S1P4 receptor (Homo sapiens, UniProt O95977); settings: GTP[γ35S] binding assay; report PLoS One, 2014, 9(10), e110819; read-out: EC50 for S1P4 receptor agonist activity; cited from earlier work
T1 sequence (O95977 1-384): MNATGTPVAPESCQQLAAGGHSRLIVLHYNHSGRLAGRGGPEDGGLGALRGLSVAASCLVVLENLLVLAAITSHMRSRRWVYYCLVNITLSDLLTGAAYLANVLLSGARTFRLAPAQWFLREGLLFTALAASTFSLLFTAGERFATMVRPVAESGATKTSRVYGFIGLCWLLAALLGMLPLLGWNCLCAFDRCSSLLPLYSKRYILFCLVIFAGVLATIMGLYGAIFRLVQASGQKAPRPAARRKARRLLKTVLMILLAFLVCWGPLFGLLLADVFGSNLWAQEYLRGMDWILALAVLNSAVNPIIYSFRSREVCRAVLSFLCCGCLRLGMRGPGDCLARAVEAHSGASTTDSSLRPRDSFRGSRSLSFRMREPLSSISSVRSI

S1P1 receptor = S1P1 receptor (Homo sapiens, UniProt P21453); experiment: GTP[γ35S] binding assay, S1P1 receptor agonist activity
S1P3 receptor = S1P3 receptor (Homo sapiens, UniProt Q99500); experiment: GTP[γ35S] binding assay, S1P3 receptor agonist activity; assay type: biochemical
[2] = tested on: laser-induced choroidal neovascularization (CNV) model; experiment: Laser-induced CNV model: area of CNV in choroidal flat mount; assay type: in vivo, mice; settings: 0.3 mg/kg orally once daily; Day 14 (Comparative Example 1; BZ-X710, Image J)
Protocol: After fluorescence fundus photography had been performed as described above in the section (1), 0.5 mL of fluorescein isothiocyanate dextran (FITC-dextran; 20 mg/mL, Sigma-Aldrich) was administered into the tail vein of the mice. The mice were euthanized by cervical dislocation, and the eyeball was extirpated. The extirpated eyeball was fixed in a 4% paraformaldehyde phosphate buffer for 12 hours. After that, the cornea and lens were excised under a microscope, and the remaining vitreous artery was removed with forceps. Further, the retina was removed, and the choroid was notched 8 points and embedded with Fluoromount (Diagnostic BioSystems) in a flat state to generate a choroidal flat mount specimen. The choroidal flat mount was photographed using a confocal laser scanning microscope (FLUOVIEW FV10i; Olympus, Tokyo, Japan). Next, on the basis of the photographed image, the CNV was encircled using analysis software OLYMPUS FLUOVIEW FV10i (Olympus), and the area thereof was determined as the area of CNV (μm^2). All analyses were performed in a blinded manner. After fluorescence fundus photography had been performed as described above in the section (1), a choroidal flat mount specimen was generated by the same method as in Example 1. The choroidal flat mount was photographed using an all-in-one fluorescence microscope (BZ-X710; Keyence, Osaka, Japan). Next, on the basis of the photographed image, the CNV was encircled using image editing software Image J, and the area thereof was determined as the area of CNV (μm^2). All analyses were performed in a blinded manner.

[3] = tested on: laser-induced choroidal neovascularization (CNV) model; experiment: Laser-induced CNV model: fluorescein angiography (FA) grade; assay type: in vivo, mice; settings: 0.3 mg/kg orally once daily; Day 14 (Comparative Example 1)
Protocol: A Mydrin-P ophthalmic solution (Santen Pharmaceutical Co., Ltd., Mydrin is a trademark) was dropped into the right eye of 8-week-old mice (Japan SLC, Inc., C56BL/6J strain) to cause mydriasis. A solution obtained by diluting a 7:1 mixed anesthetic solution of ketamine and xylazine 10-fold with physiological saline was administered at 10 mL/kg into the femoral muscle. After that, a 0.1% Hyalein (trademark) ophthalmic solution (Santen Pharmaceutical Co., Ltd.) was dropped into the eye so as to prevent the eyeball from drying. […]
Sampling was performed on the 14th day after the laser irradiation. The mice were anesthetized with 10 mL/kg of a solution obtained by diluting a 7:1 mixed anesthetic solution of ketamine and xylazine 10-fold with physiological saline, and then 0.1 mL of a 10-fold dilution of fluorescein (Alcon Japan Ltd.) was administered into the tail vein of the mice, followed by fluorescence fundus photography using Micron 4 (Phoenix Research Laboratories, Inc. Pleasanton, Calif., USA).
In FIG. 1 (a), Day 0 indicates images taken on the day of the laser irradiation, and Day 14 indicates images taken on the 14th day. In addition, for the image of each group on Day 14, an FA grade was determined for each laser irradiation site in accordance with grade criteria shown in Table 1 to evaluate the leakage of a fluorescent dye from a neovascularization site. […]

Body weight in CNV model = assay type: in vivo, mice; settings: oral once daily dosing, vs vehicle group
Text: A case in which FA was unable to be performed owing to cloudiness caused by a flaw in the eye produced before the FA evaluation and a case in which CNV was connected at the time of the evaluation of the area of CNV were excluded from analysis, and the above-mentioned results were each calculated as a mean of 11 or 12 mice in each group. […] A case in which FA was unable to be performed owing to cloudiness caused by a flaw in the eye produced before the FA evaluation and a case in which CNV was connected at the time of the evaluation of the area of CNV were excluded from analysis, and the above-mentioned results were each calculated as a mean of 12 mice in each group.

Sequence of S1P3 receptor (Q99500 whole entry): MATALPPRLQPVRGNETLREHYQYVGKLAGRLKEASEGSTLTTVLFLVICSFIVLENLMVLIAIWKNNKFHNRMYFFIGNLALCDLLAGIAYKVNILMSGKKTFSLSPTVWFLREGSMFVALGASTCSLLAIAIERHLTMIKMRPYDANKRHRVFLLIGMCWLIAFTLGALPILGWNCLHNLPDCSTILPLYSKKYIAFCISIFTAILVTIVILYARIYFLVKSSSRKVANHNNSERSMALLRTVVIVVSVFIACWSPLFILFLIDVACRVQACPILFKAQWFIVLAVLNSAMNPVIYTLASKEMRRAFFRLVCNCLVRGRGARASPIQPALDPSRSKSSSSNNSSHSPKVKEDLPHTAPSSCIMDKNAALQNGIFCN
Sequence of S1P1 receptor (P21453 whole entry): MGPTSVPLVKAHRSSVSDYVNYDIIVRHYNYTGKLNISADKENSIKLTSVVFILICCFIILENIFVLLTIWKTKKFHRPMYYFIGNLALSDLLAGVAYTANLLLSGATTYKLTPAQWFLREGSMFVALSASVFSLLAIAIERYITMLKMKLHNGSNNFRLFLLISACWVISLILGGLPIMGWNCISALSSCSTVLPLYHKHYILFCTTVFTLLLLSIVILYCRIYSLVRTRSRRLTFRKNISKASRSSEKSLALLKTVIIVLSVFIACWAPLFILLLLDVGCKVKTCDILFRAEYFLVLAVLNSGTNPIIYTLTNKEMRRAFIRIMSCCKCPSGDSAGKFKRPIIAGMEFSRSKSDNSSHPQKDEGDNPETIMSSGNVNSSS

Structure (SMILES): CCc1cc(/C(C)=N/OCc2ccc(C3CCCCC3)c(C(F)(F)F)c2)ccc1CN1CC(C(=O)O)C1 [Compound 3, 1-({4-[(1E)-N-{[4-cyclohexyl-3-(trifluoromethyl)phenyl]methoxy}ethanimidoyl]-2-ethylphenyl}methyl)azetidine-3-carboxylic acid]
amount of FITC-dextran permeating the lower chamber (fluorescence intensity) [1]: significantly decreased the amount of FITC-dextran permeating the lower chamber

Structure (SMILES): CCCCCCCCc1ccc(CCC(N)(CO)COP(=O)(O)O)cc1 (stereo not shown) [FTY720-P, 2-amino-2-(hydroxymethyl)-4-(4-octylphenyl)butyl dihydrogenphosphate, reference compound]
EC50 (S1P4 receptor): 2.2 nM

Structure (SMILES): O=C(O)C[C@H]1CCc2c1[nH]c1ccc(OCc3ccc(C4CCCC4)c(C(F)(F)F)c3)cc21 [Compound 6, [(3R)-7-{[4-cyclopentyl-3-(trifluoromethyl)phenyl]methoxy}-1,2,3,4-tetrahydrocyclopenta[b]indol-3-yl]acetic acid]
amount of FITC-dextran permeating the lower chamber (fluorescence intensity) [1]: significantly decreased the amount of FITC-dextran permeating the lower chamber

Structure (SMILES): CCC/N=C1\S/C(=C\c2ccc(OC[C@H](O)CO)c(Cl)c2)C(=O)N1c1ccccc1C [Compound 5, (2Z,5Z)-5-({3-chloro-4-[(2R)-2,3-dihydroxypropoxy]phenyl}methylidene)-3-(2-methylphenyl)-2-(propylimino)-1,3-thiazolidin-4-one]
amount of FITC-dextran permeating the lower chamber (fluorescence intensity) [1]: significantly decreased the amount of FITC-dextran permeating the lower chamber

Structure (SMILES): NC(CO)(CCc1ccc(Sc2cccc(OCc3ccccc3)c2)cc1Cl)COP(=O)(O)O (stereo not shown) [Compound 7, 2-amino-4-(4-{[3-(benzyloxy)phenyl]sulfanyl}-2-chlorophenyl)-2-(hydroxymethyl)butyl dihydrogen phosphate]
amount of FITC-dextran permeating the lower chamber (fluorescence intensity) [1]: significantly decreased the amount of FITC-dextran permeating the lower chamber

EC50 (S1P1 receptor): 13.4 nM | EC50 (S1P3 receptor): 1760 nM | EC50 for S1P3 receptor agonist activity as compared to that for the S1P1 receptor (S1P3 receptor): ≥ 100 fold
Structure (SMILES): Cl.O=C(O)C1CCN(CC2=Cc3ccc(OCc4ccc(OCC(F)(F)F)c(C(F)(F)F)c4)cc3OC2)CC1 [Compound 2, 1-[(7-{[4-(2,2,2-trifluoroethoxy)-3-(trifluoromethyl)phenyl]methoxy}-2H-1-benzopyran-3-yl)methyl]piperidine-4-carboxylic acid monohydrochloride]
amount of FITC-dextran permeating the lower chamber (fluorescence intensity) [1]: significantly decreased the amount of FITC-dextran permeating the lower chamber

Structure (SMILES): CCCCCCCCc1ccc(CCC(N)(CO)CO)cc1.Cl [FTY720, 2-amino-2-[2-(4-octylphenyl)ethyl]propane-1,3-diol monohydrochloride, reference compound]
area of CNV [2]: not found to significantly decrease the area of CNV | FA grade as compared to the vehicle group [3]: a significant lowering in FA grade was not found | change in body weight between the groups before sampling (Body weight in CNV model): a significant change in body weight between the groups before sampling was not found

Structure (SMILES): CC(C)Oc1ccc(-c2nc(-c3cccc4c3CC[C@@H]4NCCO)no2)cc1C#N [Compound 4, 5-(3-{(1S)-1-[(2-hydroxyethyl)amino]-2,3-dihydro-1H-inden-4-yl}-1,2,4-oxadiazol-5-yl)-2-[(propan-2-yl)oxy]benzonitrile]
amount of FITC-dextran permeating the lower chamber (fluorescence intensity) [1]: significantly decreased the amount of FITC-dextran permeating the lower chamber
